Marks after values point to notes of the source that are not given here.
Legend:
[1] = test system: Transaminase of Present Invention (purified enzyme); assay: Reactivity of purified transaminase to amino compounds (amino group donors) with pyruvic acid as acceptor; format: biochemical, Arthrobacter sp. KNK168; set-up: Substrate Specificity, relative activity: concentration or dose not given beside the values; conditions: for Relative Activity: amino compound 40 mM in substrate solution, pyruvic acid acceptor, pH 8.3, 30° C., 1 hour, (R)-1-phenylethylamine = 100; for Reactivity as amino compound (in words): pyruvic acid as amino acceptor
Description: (§1) The differences with the ω-amino acid transaminase derived from Pseudomonas sp. F-1 (Agric. Biol. Chem., 42, 2363–2367 (1978), Agric. Biol. Chem., 43, 1043–1048 (1979), J. Biol. Chem., 258, 2260–2265 (1983)) which have been well studied among the ω-amino acid transaminases, and with the benzylamine transaminase of Okada et al. (Japanese Patent Laid-Open No. Hei 6-178685) are summarized and shown in Table 2. In a case of the transaminase reaction in the present invention, the data of the purified enzyme are used, and in cases of those by other two enzymes, the data of the purified enzymes which are disclosed in each of the literature publication and laid-open patent publication are used. Pyruvic acid is used as an amino group acceptor in all cases.
Using the purified enzyme protein obtained in Example 9, reactivities to various amino compounds when using pyruvic acid as an amino acceptor were evaluated. A 150 μl solution of the purified enzyme protein solution diluted ten-folds was added to a 150 μl substrate solution [0.1 M potassium phosphate buffer (pH 8.3), 40 mM pyruvic acid, 0.1 mM pyridoxal phosphate, and 40 mM various amino compounds]. The components were reacted at 30° C. for 1 hour. The reaction tube was transferred into boiling water to stop the reaction, and thereafter, a part of the reaction mixture was diluted five-folds. Ten μl 0.1 M boric acid buffer (pH 8.0) and a 20 μl ethanol solution of 80 mM 4-fluoro-7-nitro-2,1,3-benzoxadiazole (NBD-F) were added to the 10 μl above-mentioned diluted reaction mixture. The resulting mixture was reacted at 60° C. for 1 minute, and thereafter, the resulting mixture was ice-cooled, and 460 μl 5 mM HCl was added thereto. This reaction mixture was analyzed by high-performance liquid chromatography using a fine pack C18-5 column (manufactured by Nippon Bunko) I and using 0.1 M potassium phosphate buffer (pH 6.5) and CH3CN (90:10) as an eluent to detect formation of NBD-Alanine with an excitation wavelength of 470 nm and a detection wave of […]. The results thereof are shown in Table 8 in terms of relative activity in the case of using […] as a substrate.

[2] = test system: purified enzyme protein (transaminase); assay: Reactivity of purified transaminase to carbonyl compounds with (R)-1-phenylethylamine as amino group donor; format: biochemical, Arthrobacter species KNK168; conditions: for Relative Activity: 25 mM carbonyl compound, 25 mM (R)-1-phenylethylamine, pH 8.5, 30° C., pyruvic acid = 100; for Reactivity as carbonyl compound (in words): (R)-1-phenylethylamine as amino group donor
Description: Using the purified enzyme protein obtained in Example 9, reactivities to various carbonyl compounds using (R)-1-phenylethylamine as an amino group donor were evaluated. A 50 μl solution of the purified enzyme protein was added to 200 μl substrate solution [0.1 M Tris-HCl buffer (pH 8.5), 25 mM (R)-1-phenylethylamine, 0.1 mM pyridoxal phosphate, and 25 mM various carbonyl compounds], and the mixture was reacted at 30° C. for 1 to 3 hours in tube. The reaction tube was transferred into boiling water to stop the reaction, and thereafter, the reaction mixture was diluted five-folds with methanol. This diluted solution was analyzed by high-performance liquid chromatography using a fine pack C18-5 column and using methanol-water (20:80) as an eluent to quantitate acetophenone formed by the reaction.

[3] = test system: Arthrobacter species KNK168 strain; assay: Amino group donors in whole-cell transamination of 1-(3,4-dimethoxyphenyl)-2-propanone; format: cell-based
Description: The cultured cells were harvested by centrifugation, and the harvested cells were suspended in a reaction mixture (pH 8.5) containing 1% 1-(3,4-dimethoxyphenyl)-2-propanone, 0.1% Triton X-100, and 1% an amino group donor shown in Table 5. The mixture was reacted at 35° C. for 20 hours.

[4] = test system: transaminase (intracellular enzyme); assay: Activity of the transaminase (intracellular enzyme) on typical substrates of ω-aminotransferases; format: biochemical, Arthrobacter sp. KNK168
[5] = test system: Arthrobacter species KNK168 strain; assay: Surfactant and fatty acid additives in whole-cell transamination; format: cell-based; conditions: for (R)-DMA Formed: 30° C., pH 8.5, 20 hours; for Effect of additive on yield of reaction product (in words): whole cells
Description: The cells obtained by culturing the Arthrobacter species KNK168 strain in the R medium were suspended in a reaction mixture containing 2% 1-(3,4-dimethoxyphenyl)-2-propanone and 4% (RS)-1-phenylethylamine. The surfactants and fatty acids shown in Table 6 were added thereto, and the mixture was reacted at 30° C. at a pH of 8.5 for 20 hours.

[6] = molecular target: T1, ω-amino acid transaminase (Pseudomonas putida, UniProt P28269); conditions: purified enzyme, literature; pyruvic acid as amino group acceptor; cited from earlier work
T1 sequence (P28269 1-449): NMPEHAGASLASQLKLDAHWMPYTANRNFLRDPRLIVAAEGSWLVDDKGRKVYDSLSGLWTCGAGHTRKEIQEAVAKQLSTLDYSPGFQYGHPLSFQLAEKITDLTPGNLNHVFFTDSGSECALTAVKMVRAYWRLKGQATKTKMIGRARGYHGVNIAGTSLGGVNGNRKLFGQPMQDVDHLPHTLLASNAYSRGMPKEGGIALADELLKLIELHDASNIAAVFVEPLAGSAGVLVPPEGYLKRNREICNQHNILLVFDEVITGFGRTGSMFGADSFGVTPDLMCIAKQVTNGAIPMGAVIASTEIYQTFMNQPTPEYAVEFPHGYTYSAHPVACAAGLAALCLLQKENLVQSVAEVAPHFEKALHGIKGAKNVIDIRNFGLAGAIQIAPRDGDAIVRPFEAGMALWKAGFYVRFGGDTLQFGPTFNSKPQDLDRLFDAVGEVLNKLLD

[7] = test system: Transaminase of Present Invention (purified enzyme); assay: Influence of reaction inhibitors on purified transaminase; format: biochemical, Arthrobacter sp. KNK168; conditions: inhibitor 1 mM; without addition = 100
Description: as §1

[8] = 1% amino group donor, 1% 1-(3,4-dimethoxyphenyl)-2-propanone, 0.1% Triton X-100, pH 8.5, 35° C., 20 hours
[9] = amino group acceptor 2-ketoglutaric acid, (R)-1-phenylethylamine/pyruvic acid = 100 (control)
[10] = additive 0.1%, no addition 28.1
[11] = amino group acceptor pyruvic acid, (R)-1-phenylethylamine = 100 (control)

CCC(C)N (stereo not drawn) [1-Methylpropylamine]
Relative Activity [1]: 1.2%

N[C@H](CO)c1ccccc1 [(S)-2-Phenylglycinol]
Relative Activity [1]: 180%
Reactivity as amino compound (in words) [1]: favorable reactivities

2-Decane
Relative Activity [2]: 3%

CC(=O)c1ccco1 [2-Acetylfuran]
Relative Activity [2]: 2%

CCOC(=O)C(C)=O [Ethyl pyruvate]
Relative Activity [2]: 27%

CC(N)CO (racemic) [(RS)-2-Amino-1-propanol]
(R)-DMA Formed [3, 8]: 9.6%

N[C@@H](CO)c1ccccc1 [(R)-2-Phenylglycinol]
Relative Activity [1]: 0%

NC(=O)CC(N)C(=O)O (racemic) [DL-Asparagine]
Relative Activity [4, 9]: 0%

CC(=O)CCc1ccccc1 [Benzyl acetone]
Relative Activity [2]: 3%

NC(CO)Cc1ccccc1 (racemic) [(RS)-2-Amino-3-phenylpropanol]
(R)-DMA Formed [3, 8]: 22.7%

CC(CN)c1ccccc1 (racemic) [(RS)-1-Amino-2-phenylpropane]
(R)-DMA Formed ([3]; pH 8.5): 1.8%

NC(CO)c1ccccc1 (racemic) [(RS)-2-Amino-2-phenylethanol]
(R)-DMA Formed [3, 8]: 48.4%

COc1ccc(CC(C)=O)cc1OC [1-(3,4-Dimethoxyphenyl)-2-propanone]
Relative Activity [2]: 7%

C[C@@H](N)c1cccc2ccccc12 [(R)-1-Naphthylethylamine]
(R)-DMA Formed [3, 8]: 34.2%

CC(=O)c1cccs1 [2-Acetylthiophene]
Relative Activity [2]: 1%

CCCCCCCCCCCCCCCC[N+](C)(C)C.[Br-] [Cetyl trimethyl ammonium bromide]
(R)-DMA Formed [5, 10]: 29.1%

CC(N)CCc1ccccc1 (stereo not drawn) [3-Aminophenylbutane]
Relative Activity [1]: 84%
Reactivity as amino compound (in words) [1]: favorable reactivities

CC(N)CC(=O)O (racemic) [DL-3-Aminobutyric acid]
Substrate Specificity, relative activity [6]: 96%
Action of the transaminase on the substance (in words) [1]: does not act on
Substrate Specificity, relative activity ([1]; purified enzyme, pyruvic acid as amino group acceptor): 0%

CCC(=O)C(=O)O [2-Ketobutyric acid]
Relative Activity [2]: 7%

CC(=O)c1cnccn1 [2-Acetylpyrazine]
Relative Activity [2]: 17%

CC(=O)C(=O)O [Pyruvic acid]
Relative Activity [2]: 100%

CC(=O)COc1ccccc1 [Phenoxy-2-propanone]
Relative Activity [2]: 83%
Reactivity as carbonyl compound (in words) [2]: favorable reactivities

COc1ccc(CCC(C)=O)cc1 [4-(4-Methoxyphenyl)-2-butanone]
Relative Activity [2]: 7%

CC(=O)c1ccncc1 [4-Acetylpyridine]
Relative Activity [2]: 27%

CC(N)CCc1ccccc1 (racemic) [(RS)-2-Amino-4-phenylbutane]
(R)-DMA Formed [3, 8]: 27.6%

CCOC(=O)CC(=O)c1ccccc1 [Ethyl benzoyl acetate]
Relative Activity [2]: 2%

NCCCC(N)C(=O)O (racemic) [DL-Ornithine]
Relative Activity [4, 9]: 0%

CC(=O)c1cccnc1 [3-Acetylpyridine]
Relative Activity [2]: 8%

CCCCCCC(C)N (stereo not drawn) [1-Methylheptylamine]
Relative Activity [1]: 47%

CC(=O)Oc1cccnc1 [3-Acetoxypyridine]
Relative Activity [2]: 1%

CCCCCCCCCCCCOS(=O)(=O)[O-].[Na+] [Sodium dodecyl sulfate]
(R)-DMA Formed [5, 10]: 45.3%
(R)-DMA Formed ([5]; additive 0.5%): 42.2%
(R)-DMA Formed ([5]; additive 1.0%): 46.3%
(R)-DMA Formed ([5]; additive 2.0%): 50.1%
(R)-DMA Formed ([5]; additive 3.0%): 51.9%
(R)-DMA Formed ([5]; additive 4.0%): 53.1%
Effect of additive on yield of reaction product (in words) [5]: yield of the reaction product was increased

NCCCCC(N)C(=O)O (racemic) [DL-Lysine]
Relative Activity [4, 9]: 0%

CC(N)c1ccccc1 (racemic) [(RS)-1-Phenylmethylamine]
(R)-DMA Formed [3, 8]: 3.1%

COCC(C)=O [1-Methoxy-2-propanone]
Relative Activity [2]: 16%

NC1C=CC=C(C(=O)O)C1 (racemic) [Gabaculine]
Relative activity with inhibitor [7]: 24%

CC(=O)C(C)=O [Diacetyl]
Relative Activity [2]: 10%

CC(=O)c1ccccn1 [2-Acetylpyridine]
Relative Activity [2]: 19%

NCCCC(N)C(=O)O (stereo not drawn) [2,5-Diaminovalerate]
Relative Activity [4, 9]: 2%

CC(=O)c1nccs1 [2-Acetylthiazole]
Relative Activity [2]: 10%

C[C@H](N)c1ccccc1 [(S)-1-Phenylethylamine]
Relative Activity [1]: 0%

CCOC(=O)CC(C)=O [Ethyl acetoacetate]
Relative Activity [2]: 4%

CCC(=O)Cc1ccccc1 [1-Phenyl-2-butanone]
Relative Activity [2]: 1%

CCCCC(C)CN (stereo not drawn) [2-Methylhexylamine]
Relative Activity [1]: 37%

NC(=O)CCC(N)C(=O)O (racemic) [DL-Glutamine]
Relative Activity [4, 9]: 0%

O=CC(=O)O [Glyoxylic acid]
Relative Activity [2]: 4%

O=CCc1ccccc1 [Phenyl acetaldehyde]
Relative Activity [2]: 13%

N[C@H](CO)Cc1ccccc1 [L-Phenylalaninol]
Relative Activity [1]: 0.8%

CCCCC/C=C\C/C=C\CCCCCCCC(=O)O [Linoleic Acid]
(R)-DMA Formed ([5]; additive 2.9%): 45.1%
Effect of additive on yield of reaction product (in words) [5]: yield of the reaction product was increased

NCCC(N)C(=O)O (stereo not drawn) [α-2,4-Diaminobutyric acid]
Relative Activity [4, 11]: 0%

O=C1CCCc2ccccc21 [1-Tetralone]
Relative Activity [2]: 1%

O=C(O)CC(=O)C(=O)O [Oxalacetic acid]
Relative Activity [2]: 87%
Reactivity as carbonyl compound (in words) [2]: favorable reactivities

NCCS(=O)(=O)O [Taurine]
Relative Activity [4, 9]: 0%

C[C@@H](N)c1ccccc1 [(R)-1-Phenylethylamine]
Activity on the substance as amino group donor (in words) [4]: especially high activity
Relative Activity [4, 11]: 100* %
Relative Activity [1]: 100%

Triton X-100
(R)-DMA Formed [5, 10]: 31.6%
(R)-DMA Formed ([5]; additive 0.5%): 34.0%

CCCCCCCC/C=C\CCCCCCCC(=O)O [Oleic Acid]
(R)-DMA Formed ([5]; additive 2.9%): 44.9%
Effect of additive on yield of reaction product (in words) [5]: yield of the reaction product was increased

Reference: patent US7169592B2, “Producing optically active amino compounds” (Kaneka Corporation, priority 1997, dated 2007)
